Laboratory results taken from ChEMBL document CHEMBL3734679, “Discovery of Azaindole Ureas as a Novel Class of Bacterial Gyrase B Inhibitors” (J Med Chem, 2015).
In brackets after ≈: the same amount, converted by molar mass.

What was measured:
DNA gyrase subunit B = DNA gyrase subunit B (Staphylococcus aureus, UniProt P0A0K8); assay: Inhibition of Staphylococcus aureus DNA GyraseB ATPase activity using linear pBR322 DNA as substrate incubated for 30 mins by fluorescence polarization analysis
Staphylococcus aureus [1] = assay: Antibacterial activity against methicillin-resistant Staphylococcus aureus 1118 after 18 to 20 hrs by broth microdilution assay; format: functional
Staphylococcus aureus [2] = assay: Antibacterial activity against ciprofloxacin-resistant Staphylococcus aureus 1721 after 18 to 20 hrs by broth microdilution assay; format: functional
Enterococcus faecalis = assay: Antibacterial activity against Enterococcus faecalis after 18 to 20 hrs by broth microdilution assay; format: functional
Streptococcus pneumoniae = assay: Antibacterial activity against Streptococcus pneumoniae after 18 to 20 hrs by broth microdilution assay; format: functional
Enterococcus faecium = assay: Antibacterial activity against Enterococcus faecium after 18 to 20 hrs by broth microdilution assay; format: functional
Staphylococcus aureus [3] = assay: Antibacterial activity against methicillin-susceptible Staphylococcus aureus 42 after 18 to 20 hrs by broth microdilution assay; format: functional

Chain of DNA gyrase subunit B (P0A0K8 whole entry): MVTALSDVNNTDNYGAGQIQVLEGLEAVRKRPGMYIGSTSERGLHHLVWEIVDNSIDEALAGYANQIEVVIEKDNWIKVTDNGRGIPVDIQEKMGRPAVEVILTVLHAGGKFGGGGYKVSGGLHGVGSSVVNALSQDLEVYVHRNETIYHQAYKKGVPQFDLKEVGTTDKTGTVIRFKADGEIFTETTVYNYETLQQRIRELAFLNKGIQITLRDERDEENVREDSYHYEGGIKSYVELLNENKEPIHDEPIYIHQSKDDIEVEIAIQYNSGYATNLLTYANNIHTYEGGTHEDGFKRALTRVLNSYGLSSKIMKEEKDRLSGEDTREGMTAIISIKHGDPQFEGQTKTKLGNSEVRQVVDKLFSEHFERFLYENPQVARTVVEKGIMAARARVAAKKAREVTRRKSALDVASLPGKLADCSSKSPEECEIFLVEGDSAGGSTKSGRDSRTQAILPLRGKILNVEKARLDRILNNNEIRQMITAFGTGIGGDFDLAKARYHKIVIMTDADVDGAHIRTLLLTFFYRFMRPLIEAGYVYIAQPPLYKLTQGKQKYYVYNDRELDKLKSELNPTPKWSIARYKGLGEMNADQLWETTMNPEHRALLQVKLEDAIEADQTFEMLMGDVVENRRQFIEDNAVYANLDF

Compound | IC50 (DNA gyrase subunit B) [nM] | MIC (Staphylococcus aureus [1]) [µg/mL] | MIC (Staphylococcus aureus [2]) [µg/mL] | MIC (Enterococcus faecalis) [µg/mL] | MIC (Streptococcus pneumoniae) [µg/mL] | MIC (Enterococcus faecium) [µg/mL] | MIC (Staphylococcus aureus [3]) [µg/mL]
CCNC(=O)Nc1cn(-c2ncccc2C)c2cc(-c3cccnc3)cnc12 | 1900 | > 32 | > 32 | > 32 | > 32 | > 32 | > 32
CCNC(=O)Nc1cn(-c2ncc(CC)cn2)c2cc(-c3cccnc3)cnc12 | 46 | 16 (≈ 41.3 µM) | 16 (≈ 41.3 µM) | 8 (≈ 20.6 µM) | 16 (≈ 41.3 µM) | 16 (≈ 41.3 µM) | 16 (≈ 41.3 µM)
CCNC(=O)Nc1cn(CC(O)CO)c2cc(-c3cccnc3)cnc12 (configuration not stated) | 1220 |  |  |  |  |  | 
CCNC(=O)Nc1cn(-c2ccccn2)c2cc(-c3cccnc3)cnc12 | 140 | 16 (≈ 44.6 µM) |  | 8 (≈ 22.3 µM) | 8 (≈ 22.3 µM) | 8 (≈ 22.3 µM) | 16 (≈ 44.6 µM)
CCNC(=O)Nc1cn(-c2ncc(Cl)cn2)c2cc(-c3cnc(C#N)nc3)cnc12 | 25 | > 32 | > 32 | > 32 | > 32 | > 32 | > 32
CCNC(=O)Nc1cn(Cc2ccccc2)c2cc(-c3cccnc3)cnc12 | 3200 |  |  |  |  |  | 
CCNC(=O)Nc1cn(-c2nccc(CCCO)n2)c2cc(-c3cccnc3)cnc12 | 42 | 32 (≈ 76.7 µM) | 32 (≈ 76.7 µM) | 0.5 (≈ 1.2 µM) | 4 (≈ 9.58 µM) | 4 (≈ 9.58 µM) | 32 (≈ 76.7 µM)
CCNC(=O)Nc1cn(-c2nccc(C)n2)c2cc(-c3cccnc3)cnc12 | 140 | > 32 | > 32 | 1 (≈ 2.68 µM) | 4 (≈ 10.7 µM) | 2 (≈ 5.36 µM) | > 32
CCNC(=O)Nc1cn(-c2ncc(Cl)cn2)c2cc(-c3ccn(C)c(=O)c3)cnc12 | 262 | 1 (≈ 2.36 µM) | 2 (≈ 4.72 µM) |  | 1 (≈ 2.36 µM) | 2 (≈ 4.72 µM) | 1 (≈ 2.36 µM)
CCNC(=O)Nc1cn(-c2ncc(Br)cn2)c2cc(-c3ccn(C)c(=O)c3)cnc12 | 94 | 1 (≈ 2.14 µM) | 1 (≈ 2.14 µM) |  | 1 (≈ 2.14 µM) | 1 (≈ 2.14 µM) | 1 (≈ 2.14 µM)
CCNC(=O)Nc1cn(-c2ncc(C(F)(F)F)cn2)c2cc(-c3cccnc3)cnc12 | > 100000 | > 32 | > 32 | > 32 | > 32 | > 32 | > 32
CCNC(=O)Nc1cn(-c2ncc(Br)cn2)c2cc(-c3ccn(CCO)c(=O)c3)cnc12 | 8 | 8 (≈ 16.1 µM) | 8 (≈ 16.1 µM) |  | 8 (≈ 16.1 µM) | 8 (≈ 16.1 µM) | 8 (≈ 16.1 µM)
CCNC(=O)Nc1nc(CO)c(-c2ccc[nH]2)s1 | 2500 |  |  |  | 16 (≈ 60.1 µM) |  | 128 (≈ 481 µM)
CCNC(=O)Nc1cn(C2CCN(C)CC2)c2cc(-c3cccnc3)cnc12 | 6420 |  |  |  |  |  | 
CCNC(=O)Nc1cn(-c2ncccn2)c2cc(-c3ccn(C)c(=O)c3)cnc12 | 12 | 2 (≈ 5.14 µM) | 4 (≈ 10.3 µM) |  | 2 (≈ 5.14 µM) | 4 (≈ 10.3 µM) | 2 (≈ 5.14 µM)
CCNC(=O)Nc1cn(-c2ncc(Cl)cn2)c2cc(-c3cccnc3)cnc12 | 92 | 4 (≈ 10.2 µM) | 4 (≈ 10.2 µM) | 0.5 (≈ 1.27 µM) | 2 (≈ 5.08 µM) | 2 (≈ 5.08 µM) | 2 (≈ 5.08 µM)
CCNC(=O)Nc1cn(C2CCN(C)C2=O)c2cc(-c3cccnc3)cnc12 (configuration not stated) | 5290 |  |  |  |  |  | 
CCNC(=O)Nc1cn(C(=O)c2ccccn2)c2cc(-c3cccnc3)cnc12 | 1130 |  |  |  |  |  | 
CCNC(=O)Nc1cn(-c2ncc(OC)cn2)c2cc(-c3cccnc3)cnc12 | 143 | 8 (≈ 20.5 µM) | 8 (≈ 20.5 µM) | 1 (≈ 2.57 µM) | 4 (≈ 10.3 µM) | 8 (≈ 20.5 µM) | 4 (≈ 10.3 µM)
CCNC(=O)Nc1cn(CCOC)c2cc(-c3cccnc3)cnc12 | 2400 |  |  |  |  |  | 

Compound | IC50 (DNA gyrase subunit B) [nM] | MIC (Staphylococcus aureus [1]) [µg/mL] | MIC (Staphylococcus aureus [2]) [µg/mL] | MIC (Enterococcus faecalis) [µg/mL] | MIC (Streptococcus pneumoniae) [µg/mL] | MIC (Enterococcus faecium) [µg/mL] | MIC (Staphylococcus aureus [3]) [µg/mL]
CCNC(=O)Nc1cn(-c2ncccn2)c2cc(-c3cccnc3)cnc12 | < 79 | 8 (≈ 22.3 µM) | 16 (≈ 44.5 µM) | 2 (≈ 5.56 µM) | 4 (≈ 11.1 µM) | 8 (≈ 22.3 µM) | 8 (≈ 22.3 µM)
CCNC(=O)Nc1nc(/C=C/c2cccnc2)c(-c2ccc[nH]2)s1 | 5800 |  |  |  |  |  | 
C=CC(=O)n1cc(NC(=O)NCC)c2ncc(-c3cccnc3)cc21 | 280 |  |  |  |  |  | 
CCNC(=O)Nc1cn(-c2ncc(C#N)cn2)c2cc(-c3cccnc3)cnc12 | 18 | > 32 | > 32 | > 32 | > 32 | > 32 | > 32
CCNC(=O)Nc1c[nH]c2cc(-c3cccnc3)cnc12 | 6500 | > 32 | > 32 | > 32 | > 32 | > 32 | > 32
CCNC(=O)Nc1cn(C2C=CCCC2)c2cc(-c3cccnc3)cnc12 (configuration not stated) | 240 |  |  |  |  |  | 
CCNC(=O)Nc1cn(-c2nccc(CCO)n2)c2cc(-c3cccnc3)cnc12 | 9 | 32 (≈ 79.3 µM) | 32 (≈ 79.3 µM) |  | 8 (≈ 19.8 µM) | 16 (≈ 39.7 µM) | 32 (≈ 79.3 µM)
CCNC(=O)Nc1cn(-c2ncc(C)c(CCCC(=O)O)n2)c2cc(-c3cccnc3)cnc12 | 15 | 8 (≈ 17.4 µM) | 8 (≈ 17.4 µM) |  | 0.5 (≈ 1.09 µM) | 8 (≈ 17.4 µM) | 8 (≈ 17.4 µM)
CCNC(=O)Nc1cn(C2CCCCC2)c2cc(-c3cccnc3)cnc12 | 350 |  |  |  |  |  | 
CCNC(=O)Nc1cn(-c2ncc(Cl)cn2)c2cc(-c3cccnc3F)cnc12 | 6060 | > 32 | > 32 | > 32 | > 32 | > 32 | > 32
CCNC(=O)Nc1cn(-c2ncc(Br)cn2)c2cc(-c3cccnc3)cnc12 | 128 | 2 (≈ 4.56 µM) | 2 (≈ 4.56 µM) | 0.25 (≈ 0.57 µM) | 1 (≈ 2.28 µM) | 2 (≈ 4.56 µM) | 1 (≈ 2.28 µM)
CCNC(=O)Nc1cn(-c2ncc(C)cn2)c2cc(-c3cccnc3)cnc12 | 64 | 4 (≈ 10.7 µM) | 4 (≈ 10.7 µM) | 1 (≈ 2.68 µM) | 4 (≈ 10.7 µM) | 4 (≈ 10.7 µM) | 4 (≈ 10.7 µM)
CCNC(=O)Nc1cn(C)c2cc(-c3cccnc3)cnc12 | 1800 |  |  |  |  |  | 
CCNC(=O)Nc1cn(-c2ncc(CC)cn2)c2cc(-c3ccn(C)c(=O)c3)cnc12 | 71 | 1 (≈ 2.4 µM) | 1 (≈ 2.4 µM) |  | 0.25 (≈ 0.599 µM) | 0.25 (≈ 0.599 µM) | 1 (≈ 2.4 µM)
C=CCn1cc(NC(=O)NCC)c2ncc(-c3cccnc3)cc21 | 430 |  |  |  |  |  | 
CCNC(=O)Nc1cn(-c2ncc(F)cn2)c2cc(-c3cccnc3)cnc12 | 127 | 32 (≈ 84.8 µM) | > 32 | 32 (≈ 84.8 µM) | 32 (≈ 84.8 µM) | 32 (≈ 84.8 µM) | 32 (≈ 84.8 µM)
CCNC(=O)Nc1cn(-c2ncc(C)cn2)c2cc(-c3ccn(C)c(=O)c3)cnc12 | 13 | > 32 | > 32 | 0.5 (≈ 1.24 µM) | 4 (≈ 9.91 µM) | > 32 | > 32
CCNC(=O)Nc1cn(-c2ncc(C)c(CCC(=O)O)n2)c2cc(-c3cccnc3)cnc12 | 48 | > 32 | > 32 |  | 1 (≈ 2.24 µM) | > 32 | > 32
CCNC(=O)Nc1cn(-c2ncccn2)c2cc(-n3cnc(C(=O)NC4CC4)c3)cnc12 | 10 | 4 (≈ 9.27 µM) | 4 (≈ 9.27 µM) |  | 2 (≈ 4.64 µM) | 8 (≈ 18.5 µM) | 4 (≈ 9.27 µM)
